Laboratory results as given in paper PMC7617869, “Molecular glues that inhibit deubiquitylase activity and inflammatory signaling” (Nature Structural & Molecular Biology, 2025).
Where “and” joins values, the source holds several entries; their conditions need not be identical. Equal values may be shown once.

What was measured:
BRISC BRCC45 F140A = BRISC BRCC45 F140A (Homo sapiens, UniProt P46736+Q15018+Q9NXR7, F140A); experiment: BRISC mutant IQF assay: BRCC45 F140A; format: biochemical
Protocol: (§1) IQF assays were performed in DUB reaction buffer containing 50 mM HEPES–NaOH pH 7.0, 100 mM NaCl, 0.1 mg ml^−1 BSA, 1 mM DTT and 0.03% v/v Brij-35. […] The final concentration of BRISC WT, all BRISC mutants, HsBRISCΔLoop, MmBRISC and DrBRISCΔNΔC was 1 nM. Other enzymes were tested at the following concentrations: 5 nM ARISC (FL), 10 nM CfBRISCΔNΔC, 250 nM AMSH* (ref. [43]), 500 nM USP2 and 1 μM trypsin (Sigma, 9002-07-7). For Michaelis–Menten experiments, 1 nM BRISC with 0–1 μM IQF K63-linked diubiquitin substrate was used. Michaelis–Menten analyses and Lineweaver–Burk plots were calculated using GraphPad Prism (version 9.0).
(§2) To assess enzymatic activity, BRISC complexes were diluted to concentrations between 1 nM and 50 nM. […] Then, 20-μl enzyme reactions were carried out in 384-well black flat-bottom low-flange plates (Corning, 35373). DUB activity was measured using IQF K63-linked diubiquitin (LifeSensors, DU6303) at 50 nM. Cleaved diubiquitin was monitored by measuring fluorescence intensity (excitation, 544 nm; emission, 575 nm; dichroic mirror, 560 nm). Fluorescence intensity was measured every minute for 30 min at 30 °C. Fluorescence intensity units were plotted against time to generate a linear reaction progress curve, where the initial velocity (V0) corresponds to the gradient of the curve (typically achieved within 15 min). IC50 values were calculated using the GraphPad Prism (version 9.0) built-in dose–response equation for inhibitor concentration versus response (variable slope).

BRISC Abraxas2 T140A = BRISC Abraxas2 T140A (Homo sapiens, UniProt P46736+Q15018+Q9NXR7, T140A); experiment: BRISC mutant IQF assay: Abraxas2 T140A; format: biochemical
Protocol: as §1, §2

BRISC BRCC36 R167A+L169A = BRISC BRCC36 R167A+L169A (Homo sapiens, UniProt P46736+Q15018+Q9NXR7, L169A/R167A); experiment: BRISC mutant IQF assay: BRCC36 R167A+L169A; format: biochemical; conditions: read-out: Normalised V0
From the text: Supplement 41594_2025_1517_MOESM5_ESM.xlsx, sheet "Fig. 4c" | column: Normalised V0

BRISC Abraxas2 T135K = BRISC Abraxas2 T135K (Homo sapiens, UniProt P46736+Q15018+Q9NXR7, T135K); experiment: BRISC mutant IQF assay: Abraxas2 T135K; format: biochemical
Protocol: as §1, §2

BRISC BRCC36 W130A = BRISC BRCC36 W130A (Homo sapiens, UniProt P46736+Q15018+Q9NXR7, W130A); experiment: BRISC mutant IQF assay: BRCC36 W130A; format: biochemical
Protocol: as §1, §2

BRISC BRCC36 L169A = BRISC BRCC36 L169A (Homo sapiens, UniProt P46736+Q15018+Q9NXR7, L169A); experiment: BRISC mutant IQF assay: BRCC36 L169A; format: biochemical
Protocol: as §1, §2

BRISC BRCC45 C245A = BRISC BRCC45 C245A (Homo sapiens, UniProt P46736+Q15018+Q9NXR7, C245A); experiment: BRISC mutant IQF assay: BRCC45 C245A; format: biochemical
Protocol: as §1, §2

HsBRISCΔLoop = HsBRISCΔLoop (Homo sapiens, UniProt P46736+Q15018+Q9NXR7, DEL184-208); experiment: Mass photometry of HsBRISCΔLoop dimer formation; conditions: for Dimer fraction: HsBRISCΔLoop
MmBRISC = molecular target: T1, MmBRISC (Mus musculus, UniProt P46737+Q3TCJ1+Q8K3W0); experiment: MmBRISC IQF DUB activity assay; format: biochemical; conditions: read-out: Normalised V0
T1 construct: made in house; host or cells: Trichoplusia ni cells (Bac-to-Bac, pFastBac-HTB)
Protocol: as §1, §2

[1] = FX-171-C 0.0035 μM, read-out: Normalised V0
[2] = FX-171-C 0.035 μM, read-out: Normalised V0
[3] = FX-171-C 0.35 μM, read-out: Normalised V0
[4] = FX-171-C 3.1 μM, read-out: Normalised V0
[5] = FX-171-C 6.25 μM, read-out: Normalised V0
[6] = FX-171-C 12.5 μM, read-out: Normalised V0
[7] = FX-171-C 25 μM, read-out: Normalised V0
[8] = FX-171-C 100 μM, read-out: Normalised V0
[9] = FX-171-C 50 μM, read-out: Normalised V0

T1 sequence (P46737 whole entry): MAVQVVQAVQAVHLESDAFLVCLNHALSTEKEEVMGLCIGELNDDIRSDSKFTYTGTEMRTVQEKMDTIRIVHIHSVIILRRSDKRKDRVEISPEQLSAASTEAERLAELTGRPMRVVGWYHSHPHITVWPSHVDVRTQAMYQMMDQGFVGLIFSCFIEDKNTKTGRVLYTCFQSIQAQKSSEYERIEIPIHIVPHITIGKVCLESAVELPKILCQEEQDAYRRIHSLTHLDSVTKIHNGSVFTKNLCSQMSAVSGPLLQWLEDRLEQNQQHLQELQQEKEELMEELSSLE
T1 sequence (Q3TCJ1 whole entry): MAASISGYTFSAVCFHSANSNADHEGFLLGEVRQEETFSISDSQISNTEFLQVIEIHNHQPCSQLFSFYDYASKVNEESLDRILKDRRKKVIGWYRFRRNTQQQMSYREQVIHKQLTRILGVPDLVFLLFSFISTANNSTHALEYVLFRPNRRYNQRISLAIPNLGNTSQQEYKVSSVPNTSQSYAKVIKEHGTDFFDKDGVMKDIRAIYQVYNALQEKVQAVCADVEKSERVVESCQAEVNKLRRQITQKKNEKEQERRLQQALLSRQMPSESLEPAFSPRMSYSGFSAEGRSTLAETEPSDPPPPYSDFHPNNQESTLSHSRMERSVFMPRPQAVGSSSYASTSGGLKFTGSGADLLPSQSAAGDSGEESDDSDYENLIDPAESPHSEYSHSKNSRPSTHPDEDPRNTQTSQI
T1 sequence (Q8K3W0 whole entry): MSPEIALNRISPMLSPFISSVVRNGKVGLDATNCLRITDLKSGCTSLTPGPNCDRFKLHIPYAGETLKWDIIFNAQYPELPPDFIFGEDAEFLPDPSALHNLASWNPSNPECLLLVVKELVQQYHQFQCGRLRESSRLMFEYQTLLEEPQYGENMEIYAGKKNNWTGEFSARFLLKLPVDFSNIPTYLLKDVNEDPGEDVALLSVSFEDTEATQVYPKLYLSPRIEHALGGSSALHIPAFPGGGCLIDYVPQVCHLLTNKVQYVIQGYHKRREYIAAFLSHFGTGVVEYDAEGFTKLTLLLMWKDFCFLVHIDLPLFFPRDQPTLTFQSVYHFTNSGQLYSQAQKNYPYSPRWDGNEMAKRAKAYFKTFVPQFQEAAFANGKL
T1 sequence (Q3UI43 whole entry partner): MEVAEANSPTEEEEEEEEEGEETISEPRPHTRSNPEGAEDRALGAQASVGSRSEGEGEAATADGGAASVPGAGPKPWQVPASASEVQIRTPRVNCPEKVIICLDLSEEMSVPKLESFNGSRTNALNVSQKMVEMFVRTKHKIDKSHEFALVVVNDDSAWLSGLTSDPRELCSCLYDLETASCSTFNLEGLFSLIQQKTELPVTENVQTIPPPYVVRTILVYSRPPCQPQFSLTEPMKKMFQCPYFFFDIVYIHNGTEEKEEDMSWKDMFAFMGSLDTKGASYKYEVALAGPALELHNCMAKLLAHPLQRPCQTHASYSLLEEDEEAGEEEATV

- IC50 (BRISC BRCC45 F140A): 4.3 µM
- inhibitor sensitivity vs BRISC WT (BRISC BRCC45 F140A): reduced sensitivity to inhibition
- remaining activity at 0.0035 µM (BRISC BRCC45 F140A; [1]): 96%
- remaining activity at 0.035 µM (BRISC BRCC45 F140A; [2]): 92.5%
- remaining activity at 0.35 µM (BRISC BRCC45 F140A; [3]): 89.9%
- remaining activity at 3.1 µM (BRISC BRCC45 F140A; [4]): 51.2%
- remaining activity at 6.25 µM (BRISC BRCC45 F140A; [5]): 43.9%
- remaining activity at 12.5 µM (BRISC BRCC45 F140A; [6]): 26.9%
- remaining activity at 25 µM (BRISC BRCC45 F140A; [7]): 14.2%
- remaining activity at 100 µM (BRISC BRCC45 F140A; [8]): 5.06%
- IC50 (BRISC Abraxas2 T140A; Abraxas 2 T140A): 5 µM
- inhibitor sensitivity vs BRISC WT (BRISC Abraxas2 T140A; Abraxas 2 T140A): IC50 tenfold higher than BRISC WT
- remaining activity at 0.0035 µM (BRISC Abraxas2 T140A; Abraxas2 T140A, FX-171-C 0.0035 μM, read-out: Normalised V0): 89.1%
- remaining activity at 0.35 µM (BRISC Abraxas2 T140A; Abraxas2 T140A, FX-171-C 0.35 μM, read-out: Normalised V0): 99.5%
- remaining activity at 3.1 µM (BRISC Abraxas2 T140A; Abraxas2 T140A, FX-171-C 3.1 μM, read-out: Normalised V0): 53.4%
- remaining activity at 0.35 µM (BRISC BRCC36 R167A+L169A; FX-171-C 0.35 μM): 98.6%
- remaining activity at 25 µM (BRISC BRCC36 R167A+L169A; FX-171-C 25 μM): 85.6%
- IC50 (BRISC Abraxas2 T135K): 1.5 µM
- remaining activity at 0.35 µM (BRISC Abraxas2 T135K; [3]): 73.4%
- remaining activity at 3.1 µM (BRISC Abraxas2 T135K; [4]): 20.9%
- IC50 (BRISC BRCC36 W130A): 23 µM
- remaining activity at 0.0035 µM (BRISC BRCC36 W130A; [1]): 95.2%
- remaining activity at 0.035 µM (BRISC BRCC36 W130A; [2]): 96.5%
- remaining activity at 12.5 µM (BRISC BRCC36 W130A; [6]): 67.5%
- remaining activity at 50 µM (BRISC BRCC36 W130A; [9]): 40.4%
- remaining activity at 100 µM (BRISC BRCC36 W130A; [8]): 21%
- IC50 (BRISC BRCC36 L169A): 33 µM
- reduction of inhibition over wild-type complex (BRISC BRCC36 L169A): > 100 fold
- remaining activity at 0.035 µM (BRISC BRCC36 L169A; [2]): 94.7%
- remaining activity at 3.1 µM (BRISC BRCC36 L169A; [4]): 98.4%
- remaining activity at 50 µM (BRISC BRCC36 L169A; [9]): 40.6%
- remaining activity at 100 µM (BRISC BRCC36 L169A; [8]): 22.1%
- remaining activity at 200 µM (BRISC BRCC36 L169A; FX-171-C 200 μM, read-out: Normalised V0): 10.5%
- IC50 (BRISC BRCC45 C245A): 31 µM
- inhibitor sensitivity vs BRISC WT (BRISC BRCC45 C245A): reduced sensitivity to inhibition
- remaining activity at 0.0035 µM (BRISC BRCC45 C245A; [1]): 97.7%
- remaining activity at 0.035 µM (BRISC BRCC45 C245A; [2]): 74.6%
- remaining activity at 0.35 µM (BRISC BRCC45 C245A; [3]): 94.7%
- remaining activity at 6.25 µM (BRISC BRCC45 C245A; [5]): 66.4%
- remaining activity at 12.5 µM (BRISC BRCC45 C245A; [6]): 43.3%
- remaining activity at 25 µM (BRISC BRCC45 C245A; [7]): 46.6%
- Dimer fraction (HsBRISCΔLoop; [FX-171-C (μM)] 20): 0
- Dimer fraction (HsBRISCΔLoop; [FX-171-C (μM)] 40): 0
- Dimer fraction (HsBRISCΔLoop; [FX-171-C (μM)] 80): 0
- Dimer fraction (HsBRISCΔLoop; [FX-171-C (μM)] 156): 0
- Dimer fraction (HsBRISCΔLoop; [FX-171-C (μM)] 312.5): 0
- Dimer fraction (HsBRISCΔLoop; [FX-171-C (μM)] 2500): 0.11 and 0.07
- Dimer fraction (HsBRISCΔLoop; [FX-171-C (μM)] 5000): 0.16 and 0.15 and 0.14
- Dimer fraction (HsBRISCΔLoop; [FX-171-C (μM)] 10000): 0.23 and 0.22 and 0.14
- dimer formation of human BRISCΔLoop on inhibitor addition (HsBRISCΔLoop; mass photometry and negative-stain EM): fewer dimers
- remaining activity at 0.02 µM (MmBRISC; FX-171-C 0.02 μM): 101%
- remaining activity at 0.0399999 µM (MmBRISC; FX-171-C 0.0399999 μM): 89.4%
- remaining activity at 0.0599997 µM (MmBRISC; FX-171-C 0.0599997 μM): 106%
- remaining activity at 0.0799994 µM (MmBRISC; FX-171-C 0.0799994 μM): 102%
- remaining activity at 0.119998 µM (MmBRISC; FX-171-C 0.119998 μM): 107%
- remaining activity at 0.199996 µM (MmBRISC; FX-171-C 0.199996 μM): 106%
- remaining activity at 0.499975 µM (MmBRISC; FX-171-C 0.499975 μM): 94.9%
- remaining activity at 0.799937 µM (MmBRISC; FX-171-C 0.799937 μM): 98%
- remaining activity at 1.25984 µM (MmBRISC; FX-171-C 1.25984 μM): 89.8%
- remaining activity at 1.9996 µM (MmBRISC; FX-171-C 1.9996 μM): 97.6%
- remaining activity at 3.159 µM (MmBRISC; FX-171-C 3.159 μM): 92.5%
- remaining activity at 5.19739 µM (MmBRISC; FX-171-C 5.19739 μM): 87.1%
- remaining activity at 7.99364 µM (MmBRISC; FX-171-C 7.99364 μM): 68.2%
- remaining activity at 12.7839 µM (MmBRISC; FX-171-C 12.7839 μM): 57.7%
- remaining activity at 19.96 µM (MmBRISC; FX-171-C 19.96 μM): 43.1%
- remaining activity at 31.4999 µM (MmBRISC; FX-171-C 31.4999 μM): 34%
- remaining activity at 50.147 µM (MmBRISC; FX-171-C 50.147 μM): 24.4%
- remaining activity at 79.7601 µM (MmBRISC; FX-171-C 79.7601 μM): 22.6%
- remaining activity at 125.99 µM (MmBRISC; FX-171-C 125.99 μM): 12%
Structure (SMILES): O=C(NC1C2CNCC21)c1nn(C(=O)c2c(Cl)cccc2Cl)cc1NC(=O)c1c(Cl)cccc1Cl (stereo not shown) [FX-171-C]
- inhibitor sensitivity vs BRISC WT (BRISC Abraxas2 T135K): moderate to little effect on inhibitor sensitivity
